Data set [1] in a line: Rapid plasma stability profiling, method 1 (MALDI-TOF), rat plasma. It is filed as in vitro ADME. Conditions: 35% rat plasma, 37 deg C, method 1, qualitative; listed as N-methylation of Arg5. As to the method: A rapid plasma stability profiling assay was developed that employed mass spectrometric detection (MALDI-TOF, Voyager DE, Applied Biosystems) of the parent mass, until the time when the parent peptide mass was no longer observable. Specifically, 200 uM of peptide was incubated in the presence of 35% rat or human plasma (Sera labs, using citrate as anticoagulant) at 37 deg C, which was supplemented with 1×PBS (derived from a 10×PBS Stock, Sigma). At various time points (i.e. t=0, 3, 24 hrs, henceafter daily up to 10 days), 2 uL of sample was added to 18 uL of 30 mM ammonium bicarbonate in a 1:1 mixture of acetonitrile:H2O. Samples were frozen at −80 deg C until the time of analysis. For mass spectrometric analysis that determines the approximate detection window of the peptide, the acetonitrile:H2O-diluted sample of a given time point was spotted directly (0.7 uL) onto the MALDI plate. Matrix (alpha-cyanocinnamic acid, Sigma, prepared as a saturated solution in 1:1 acetonitrile:water containing 0.1% trifluoroacetic acid) was layered over the sample (1 uL). At a similar laser intensity setting on the MALDI TOF, the time could then be determined until parent peptide was no longer detectable. It should be noted that this is a qualitative assay serves to detect relative changes in plasma stability.

The target of data set [2] is human plasma kallikrein (hPK) (Homo sapiens, UniProt P03952). The experiment in a line: Enzyme inhibition assay, human plasma kallikrein.
Data set [3] can be described thus: Quantitative plasma stability, method 3 (LC/MS), rat plasma. Format: in vitro ADME. Conditions: determined quantitatively by LC/MS, read-out: rat plasma halflife (converted). As for the experimental part:
To obtain plasma stability quantitatively, peptide stock solutions (1 mM in DMSO) were shipped to Biofocus, UK, who performed the analysis. Peptides were diluted to 100 uM with water, and diluted 1:20 in plasma (5 uM final concentration, with the plasma at 95%), sampled as appropriate, precipitated as above, and quantified using a Waters Xevo TQ-MS.

Data set [4] has as its target rat plasma kallikrein (rPK) (Rattus norvegicus, UniProt P14272). The data set is described as follows: Enzyme inhibition assay, rat plasma kallikrein.
The target of data set [5] is T1, Human factor XIa (hfXIa) (Homo sapiens, UniProt P03951). Conditions: highest concentration tested (10 μM), Heinis et al. 2009; cited from earlier work.
T1 sequence (P03951 388-625 limits assumed): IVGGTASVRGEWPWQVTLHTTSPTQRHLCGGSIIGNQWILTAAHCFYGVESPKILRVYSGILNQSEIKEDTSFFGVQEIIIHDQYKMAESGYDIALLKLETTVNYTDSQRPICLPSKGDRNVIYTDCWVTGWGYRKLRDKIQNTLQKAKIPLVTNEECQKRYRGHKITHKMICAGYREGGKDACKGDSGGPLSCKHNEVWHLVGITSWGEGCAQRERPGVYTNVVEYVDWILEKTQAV
T1 sequence (P03951 19-387 partner limits assumed): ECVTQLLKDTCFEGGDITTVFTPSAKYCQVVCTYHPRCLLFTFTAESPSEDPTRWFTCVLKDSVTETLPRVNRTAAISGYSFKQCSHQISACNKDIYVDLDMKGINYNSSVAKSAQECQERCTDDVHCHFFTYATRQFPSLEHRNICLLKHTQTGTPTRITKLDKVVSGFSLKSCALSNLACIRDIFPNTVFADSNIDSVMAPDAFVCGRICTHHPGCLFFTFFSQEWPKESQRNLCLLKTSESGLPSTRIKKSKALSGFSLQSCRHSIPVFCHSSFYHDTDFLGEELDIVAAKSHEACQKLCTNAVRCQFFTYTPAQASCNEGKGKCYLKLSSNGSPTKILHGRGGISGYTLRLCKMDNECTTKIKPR
For data set [6], the target named is monkey plasma kallikrein (mPK) (Macaca mulatta, UniProt A0A1D5Q7U7). The data set is described as follows: Inhibition of monkey plasma kallikrein.
monkey plasma kallikrein (mPK), sequence (A0A1D5Q7U7 391-638): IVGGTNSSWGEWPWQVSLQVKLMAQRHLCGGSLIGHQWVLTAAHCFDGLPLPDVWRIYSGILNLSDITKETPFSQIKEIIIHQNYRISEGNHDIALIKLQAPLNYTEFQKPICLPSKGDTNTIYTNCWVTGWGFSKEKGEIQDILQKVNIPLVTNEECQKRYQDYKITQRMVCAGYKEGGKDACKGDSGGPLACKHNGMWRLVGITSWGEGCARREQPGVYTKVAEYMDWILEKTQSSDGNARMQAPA
Data set [7] has as its target T2, Human factor XIIa (hfXIIa) (Homo sapiens, UniProt P00748).
T2 sequence (P00748 373-615 limits assumed): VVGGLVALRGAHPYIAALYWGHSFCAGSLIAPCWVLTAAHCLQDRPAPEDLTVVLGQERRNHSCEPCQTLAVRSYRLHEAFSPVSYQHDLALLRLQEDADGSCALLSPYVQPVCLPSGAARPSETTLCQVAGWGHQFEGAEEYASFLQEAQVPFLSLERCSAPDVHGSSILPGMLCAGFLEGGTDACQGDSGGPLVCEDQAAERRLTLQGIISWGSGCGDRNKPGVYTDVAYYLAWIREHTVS
The experiment in a line: Inhibition of paralogous protease factor XIIa. Format: biochemical. As to the method:
(§1) The target specificity of the isolated bicyclic peptide inhibitors was assessed by determining the inhibition of trypsin-like human serine proteases of the class S1A which comprises 79 members (Yousef, et al, Biochem Biophys Res Commun 2003, 305 (1), 28-36). The panel of proteases included hfXIa which shares the highest sequence identity with hPK (69%) as well as the structurally less related but vital human serine proteases thrombin (36%), plasmin (34% sequence identity with hPK) and factor XIIa (35%).

The target of another data set is Human thrombin (Homo sapiens, UniProt P00734). The data set is described as follows: Inhibition of paralogous protease thrombin. Format: biochemical. As to the method:
as §1

The next data set concerns the target Human plasmin (Homo sapiens, UniProt P00747). The experiment in a line: Inhibition of paralogous protease plasmin. Format: biochemical. The settings on record: highest concentration tested (100 μM). As to the method:
as §1

Data set [8] addresses T1, Human factor XIa (hfXIa). The experiment in a line: Inhibition of paralogous protease factor XIa. The settings on record: highest concentration tested (100 μM). It is filed as biochemical. As to the method: as §1
The mark [9] stands for this setting: highest concentration tested (100 μM).

Numbered stars: 1 amine (or outer) side, 2 acyl side, 3 side chain; on linkers, the order of the positions; unused ones are H or OH. Bridge positions count the residues as written; N and C are the ends. Peptide text beside a SMILES is read from it. TBMB = c1c(C[*:1])cc(C[*:3])cc1C[*:2] Where only a bound is given, the exact number is not on record here.

As usually defined, the Ki is the dissociation constant of the complex between target and ligand, obtained from inhibition or displacement. What is called IC50 is the concentration at which inhibition is half-maximal.

rat plasma kallikrein (rPK), sequence (P14272 391-638 limits assumed): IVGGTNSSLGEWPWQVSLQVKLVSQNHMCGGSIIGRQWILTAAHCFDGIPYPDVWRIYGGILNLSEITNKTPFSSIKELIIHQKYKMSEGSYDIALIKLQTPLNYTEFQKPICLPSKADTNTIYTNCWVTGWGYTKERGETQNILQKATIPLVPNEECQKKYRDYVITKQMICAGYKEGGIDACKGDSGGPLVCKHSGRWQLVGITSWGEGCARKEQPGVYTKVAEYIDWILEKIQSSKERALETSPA
Human plasmin, sequence (P00747 581-810 limits assumed): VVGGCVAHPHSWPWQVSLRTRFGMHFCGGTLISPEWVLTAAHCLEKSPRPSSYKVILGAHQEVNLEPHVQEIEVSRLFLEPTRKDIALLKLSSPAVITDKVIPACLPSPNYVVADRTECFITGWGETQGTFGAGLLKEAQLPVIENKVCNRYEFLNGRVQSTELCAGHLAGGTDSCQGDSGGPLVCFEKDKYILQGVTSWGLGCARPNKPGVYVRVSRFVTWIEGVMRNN
Human plasmin, sequence (P00747 97-580 partner limits assumed): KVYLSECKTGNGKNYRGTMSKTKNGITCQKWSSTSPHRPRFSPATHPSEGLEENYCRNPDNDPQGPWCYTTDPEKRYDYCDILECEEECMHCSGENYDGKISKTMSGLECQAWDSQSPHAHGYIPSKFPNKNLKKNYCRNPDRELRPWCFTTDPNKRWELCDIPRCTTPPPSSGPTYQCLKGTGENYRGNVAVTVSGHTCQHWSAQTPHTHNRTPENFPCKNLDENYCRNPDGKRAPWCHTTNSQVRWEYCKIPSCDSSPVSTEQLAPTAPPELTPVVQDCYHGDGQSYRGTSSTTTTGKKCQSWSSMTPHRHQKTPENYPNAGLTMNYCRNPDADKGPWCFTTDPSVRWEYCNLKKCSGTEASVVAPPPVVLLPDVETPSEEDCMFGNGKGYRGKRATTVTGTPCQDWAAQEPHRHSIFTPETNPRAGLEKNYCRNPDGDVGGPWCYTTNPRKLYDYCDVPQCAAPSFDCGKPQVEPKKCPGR

For `CC(=O)N[C@H]1CSCc2cc3cc(c2)CSC[C@H](NC(=O)[C@H](CCCNC(=N)N)N(C)C(=O)[C@H](C)NC(=O)[C@@H]2CCCN2C(=O)[C@H](Cc2c[nH]c4ccccc24)NC(=O)[C@H](CO)NC1=O)C(=O)N[C@@H](CC(C)C)C(=O)N[C@@H](Cc1c[nH]cn1)C(=O)N[C@@H](CCC(N)=O)C(=O)N[C@@H](CC(=O)O)C(=O)N[C@@H](CC(C)C)C(=O)N[C@H](C(N)=O)CSC3` [Ac-(06-34-18) NMeArg5], in data set [1], the “Observable in rat plasma, for days” value is given as “exceeds the assay time”. The compound also yielded a Ki in [2] of 3.5 nM. Moreover, the “fold reduction in affinity to kallikrein compared to wildtype peptide” value in [2] (versus Ac-06-34-18(TMB)-NH2) is reported as 20 fold.

`CC(=O)N[C@H]1CSCc2cc3cc(c2)CSC[C@H](NC(=O)[C@H](CCCNC(=N)N)NC(=O)[C@H](C)NC(=O)[C@@H]2CCCN2C(=O)[C@H](Cc2c[nH]c4ccccc24)NC(=O)[C@H](CO)NC1=O)C(=O)N[C@@H](CC(C)C)C(=O)N[C@@H](Cc1c[nH]cn1)C(=O)N[C@@H](CCC(N)=O)C(=O)N[C@@H](CC(=O)O)C(=O)N[C@@H](CC(C)C)C(=O)N[C@H](C(N)=O)CSC3` [Ac-(06-34-18) wildtype] gave a Ki in data set [2] of 0.17 nM. In addition, the half-life at 5 uM in data set [3] was around 2 h. Also, in data set [4], the IC50 was 1.7 nM.

For the compound `CC(C)C[C@@H]1NC(=O)[C@H](C)NC(=O)[C@H](CCC(=O)O)NC(=O)[C@H](CC(=O)O)NC(=O)[C@H](C)NC(=O)[C@@H]2CCCN2C(=O)[C@@H]2CSCc3cc(cc(c3)CSC[C@@H](C(=O)NCC(N)=O)NC1=O)CSC[C@H](NC(=O)[C@H](C)N)C(=O)N[C@@H](CO)C(=O)N[C@@H](CC(=O)O)C(=O)N[C@@H](CCCNC(=N)N)C(=O)N[C@@H](Cc1ccccc1)C(=O)N[C@@H](CCCNC(=N)N)C(=O)N[C@@H](CC(N)=O)C(=O)N2` [PK15] (H-ACSDRFRNCPADEALCG-NH2; linker 2-9-16 via TBMB), on Human factor XIa (hfXIa) [5], the “inhibition of factor XIa (hfXIa)” value was “did not inhibit”. Besides, affinity in data set [6] was put at a Ki of 2.9 nM.

As for `C[C@H](N)C(=O)N[C@H]1CSCc2cc3cc(c2)CSC[C@H](NC(=O)[C@H](CCCNC(=N)N)NC(=O)[C@H](C)NC(=O)[C@@H]2CCCN2C(=O)[C@H](Cc2c[nH]c4ccccc24)NC(=O)[C@H](CCCNC(=N)N)NC1=O)C(=O)N[C@@H]([C@@H](C)O)C(=O)N[C@@H](Cc1c[nH]cn1)C(=O)N[C@@H](CCC(N)=O)C(=O)N[C@@H](CC(N)=O)C(=O)N[C@@H](Cc1ccc(O)cc1)C(=O)N[C@H](C(=O)N[C@@H](C)C(N)=O)CSC3` [Peptide 06-54] (H-ACRWPARCTHQNYCA-NH2; linker 2-8-14 via TBMB), the IC50 (in data set [7]; on Human thrombin) was above 10000 nM each time. Also, the “inhibition of factor XIIa” value in data set [7] (setting [9]) was “did not inhibit”. The inhibition of thrombin entry against Human thrombin (setting [9]) is on record as “did not inhibit”. For the same compound, the inhibition constant (Ki) was determined as 0.49 nM in data set [2] and 7 nM in data set [4]. Moreover, the inhibition of plasmin entry against Human plasmin is “did not inhibit”. The “inhibition of hfXIa” value against Human factor XIa (hfXIa) [8] was “did not inhibit”.
